Measurements: patent US20200069691A1, “HETEROCYCLIC COMPOUNDS AS HIV PROTEASE INHIBITORS” (Merck Sharp & Dohme Corp., priority 2016, published 2020)
pIC50: −log10 of the molar value.

Target: T1, wild-type HIV-1 protease (Human immunodeficiency virus type 1 group M subtype B, UniProt P04585)
T1 construct: Escherichia coli expressed wild-type HIV-1 protease protein
Experiment: Assay for Inhibition of Microbial Expressed HIV Protease (peptide substrate cleavage, LC-MS/MS readout)
Format: biochemical
Conditions: E. coli expressed wild-type HIV-1 protease, mean of at least two independent experiments, read-out: HIV Pr Enzyme HIV1 PR IC50
How it was run: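 E. coli-expressed wild-type HIV-1 protease ([…]) was preincubated with inhibitor 30 min at room temperature in pH 5.5 acetate buffer (100 mM NaCl, 0.1% BSA). Then 400 μM octapeptide substrate was added and reacted 1 h at 30 °C; inhibition came from LC-MS/MS product peak areas, mean of ≥2 experiments.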

Compound: COC(=O)N1CCN(C(=O)c2cccc(CN3C(=N)NC(c4ccc(F)cc4)(c4ccc(F)cc4)C3=O)c2)CC1 [Compound 305, methyl 4-[(3-{[4,4-bis(4-fluorophenyl)-2-imino-5-oxoimidazolidin-1-yl]methyl}phenyl)carbonyl] piperazine-1-carboxylate]
- pIC50: 7.19

Compound: CN(C)C(=O)c1cccc(C2(c3ccc(F)cc3)NC(=N)N(Cc3cccc(C(=O)N4Cc5ccccc5C4)c3)C2=O)c1 (stereo not drawn) [Compound 306, 3-{1-[3-(1,3-dihydro-2H-isoindol-2-ylcarbonyl)benzyl]-4-(4-fluorophenyl)-2-imino-5-oxoimidazolidin-4-yl}-N,N-dimethylbenzamide]
- pIC50: 7.32

Compound: N=C1NC(c2ccccc2)(c2ccccc2)C(=O)N1Cc1cccc(C(=O)N2CCN(c3ccccn3)CC2)c1 [Compound 307, 2-imino-5,5-diphenyl-3-{3-[(4-pyridin-2-ylpiperazin-1-yl)carbonyl]benzyl}-imidazolidin-4-one]
- pIC50: 7.32

Compound: N=C1NC(c2ccccc2)(c2ccccc2)C(=O)N1Cc1cccc(C(=O)N2CCc3cc(F)ccc3C2)c1 [Compound 308, 3-{3-[(6-fluoro-3,4-dihydroisoquinolin-2(1H)-yl)carbonyl]benzyl}-2-imino-5,5-diphenylimidazolidin-4-one]
- pIC50: 7.31

Compound: CN(C)C(=O)N1CCN(C(=O)c2cc(F)cc(CN3C(=N)NC(c4ccccc4)(c4ccccc4)C3=O)c2)CC1 [Compound 309, 4-({3-fluoro-5-[(2-imino-5-oxo-4,4-diphenylimidazolidin-1-yl)methyl]phenyl}carbonyl)-N,N-dimethylpiperazine-1-carboxamide]
- pIC50: 6.91

Compound: N=C1NC(c2ccccc2)(c2ccccc2)C(=O)N1Cc1cccc(C(=O)N2Cc3cncnc3C2)c1 [Compound 310, 3-[3-(5,7-dihydro-6H-pyrrolo[3,4-d]pyrimidin-6-ylcarbonyl)benzyl]-2-imino-5,5-diphenylimidazolidin-4-one]
- pIC50: 7.29

Compound: CC1c2ccccc2CN1C(=O)c1cccc(CN2C(=N)NC(c3ccc(F)cc3)(c3ccc(F)cc3)C2=O)c1 (stereo not drawn) [Compound 311, 5,5-bis(4-fluorophenyl)-2-imino-3-{3-[(1-methyl-1,3-dihydro-2H-isoindol-2-yl)carbonyl]benzyl} imidazolidin-4-one]
- pIC50: 7.29

Compound: N=C1NC(c2ccccc2)(c2ccccc2)C(=O)N1Cc1cccc(C(=O)N2CCc3ccccc32)c1 [Compound 312, 3-[3-(2,3-dihydro-1H-indol-1-ylcarbonyl)benzyl]-2-imino-5,5-diphenylimidazolidin-4-one]
- pIC50: 7.28

Compound: N=C1NC(c2ccccc2)(c2ccccc2)C(=O)N1Cc1cccc(C(=O)N2CCc3ccncc3C2)c1 [Compound 313, 3-[3-(3,4-dihydro-2,7-naphthyridin-2(1H)-ylcarbonyl)benzyl]-2-imino-5,5-diphenylimidazolidin-4-one]
- pIC50: 7.28

Compound: CC(C)CCC1(c2ccccc2)NC(=N)N(Cc2cccc(C(=O)N3CCC(n4c(=O)[nH]c5ccccc54)CC3)c2)C1=O (stereo not drawn) [Compound 314, 1-{1-[(3-{[2-imino-4-(3-methylbutyl)-5-oxo-4-phenylimidazolidin-1-yl]methyl}phenyl)carbonyl]piperidin-4-yl}-1,3-dihydro-2H-benzimidazol-2-one]
- pIC50: 7.28

Compound: CC(C)CC1(c2ccccc2)NC(=N)N(Cc2cccc(C(=O)N3CCN(c4ccccc4Cl)CC3)c2)C1=O (stereo not drawn) [Compound 315, 3-(3-{[4-(2-chlorophenyl)piperazin-1-yl]carbonyl}benzyl)-2-imino-5-(2-methylpropyl)-5-phenylimidazolidin-4-one]
- pIC50: 7.28

Compound: N=C1NC(c2ccc(F)cc2)(c2ccc(F)cc2)C(=O)N1Cc1cccc(C(=O)N2CCC(n3c(=O)[nH]c4nc(F)ccc43)CC2)c1 [Compound 316, 1-{1-[(3-{[4,4-bis(4-fluorophenyl)-2-imino-5-oxoimidazolidin-1-yl]methyl}phenyl)carbonyl]piperidin-4-yl}-5-fluoro-1,3-dihydro-2H-imidazo[4,5-b]pyridin-2-one]
- pIC50: 7.28
